Measured values published in patent publication US20070032529A1, “Pyrazole compounds and their use as antidiabetes agents” (Japan Tobacco Inc., priority 2005, published 2007).
Where a name gives a salt, the structure may show the parent alone.

Target: T1, recombinant human liver glycogen phosphorylase (Homo sapiens, UniProt P06737)
T1 construct: made in house; host or cells: Sf9 insect cells (crude homogenate, diluted, used as the enzyme solution)
T1 sequence (P06737 1-847): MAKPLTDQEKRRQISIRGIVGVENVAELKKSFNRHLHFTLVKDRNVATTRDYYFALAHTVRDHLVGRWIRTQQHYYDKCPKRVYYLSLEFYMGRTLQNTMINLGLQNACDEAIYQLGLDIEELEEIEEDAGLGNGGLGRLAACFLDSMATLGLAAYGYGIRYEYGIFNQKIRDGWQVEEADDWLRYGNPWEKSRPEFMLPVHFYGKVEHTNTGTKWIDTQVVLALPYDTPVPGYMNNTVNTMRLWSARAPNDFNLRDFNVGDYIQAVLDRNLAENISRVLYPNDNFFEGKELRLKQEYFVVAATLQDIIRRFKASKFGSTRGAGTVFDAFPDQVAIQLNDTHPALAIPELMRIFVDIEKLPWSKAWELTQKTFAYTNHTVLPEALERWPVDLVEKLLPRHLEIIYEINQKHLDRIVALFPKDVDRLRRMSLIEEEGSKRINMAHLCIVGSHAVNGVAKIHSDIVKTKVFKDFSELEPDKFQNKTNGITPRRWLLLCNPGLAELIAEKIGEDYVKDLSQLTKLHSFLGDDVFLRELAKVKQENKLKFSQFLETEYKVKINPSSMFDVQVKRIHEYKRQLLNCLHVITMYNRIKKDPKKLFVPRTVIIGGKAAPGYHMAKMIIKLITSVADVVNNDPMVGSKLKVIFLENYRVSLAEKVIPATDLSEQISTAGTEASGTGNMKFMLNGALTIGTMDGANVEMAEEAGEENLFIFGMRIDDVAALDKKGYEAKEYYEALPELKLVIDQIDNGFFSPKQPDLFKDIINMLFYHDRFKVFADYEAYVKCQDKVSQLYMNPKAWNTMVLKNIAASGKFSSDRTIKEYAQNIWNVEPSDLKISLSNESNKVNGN
Assay: Measuring liver glycogen phosphorylase activity (forward reaction system, NADPH absorbance at 340 nm)
Assay type: biochemical
Details: enzyme inhibitory activity with respect to liver glycogen phosphorylase; class symbols
In short: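 Sf9 homogenate expressing the enzyme, in pH 6.8 BES/EDTA, with glycogen and phosphate substrate plus glucose, coupled via phosphoglucomutase/G6PDH to NADPH formation. A340 change over 75 min at room temperature, blank-corrected; IC50 linearly interpolated between the two concentrations bracketing 50% inhibition versus 1% DMSO control.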

| SMILES | IC50 |
| --- | --- |
| Cc1ncoc1CNC(=O)c1cc(NC(=O)c2cc(F)c(F)cc2Cl)[nH]n1 [Example 1-2, 5-(2-chloro-4,5-difluoro-benzoylamino)-1H-pyrazole-3-carboxylic acid (4-methyl-oxazol-5-ylmethyl)-amide] | < 100 nM |
| Cc1ccnc(C)c1CNC(=O)c1cc(NC(=O)c2cc(F)c(F)cc2Cl)[nH]n1 [Example 1-3-1, 5-(2-chloro-4,5-difluoro-benzoylamino)-1H-pyrazole-3-carboxylic acid (2,4-dimethyl-pyridin-3-ylmethyl)-amide dihydrochloride] | < 100 nM |
| COc1ccc(CNC(=O)c2cc(NC(=O)c3cc(F)c(F)cc3Cl)[nH]n2)cn1 [Example 1-12] | < 100 nM |
| COc1cccc(OC)c1CNC(=O)c1cc(NC(=O)c2cc(F)c(F)cc2Cl)[nH]n1 [Example 1-15] | < 100 nM |

Same assay, conditions: figure in brackets (100); read-out: IC50: % value given with (100)

| SMILES | inhibition at 0.1 µM |
| --- | --- |
| O=C(NC1CCc2ccccc21)c1cc(NC(=O)c2cc(F)c(F)cc2Cl)[nH]n1 (stereo not drawn) [Example 6-41] | 12.3% |
| O=C(NC1Cc2ccccc2C1)c1cc(NC(=O)c2cc(F)c(F)cc2Cl)[nH]n1 [Example 6-42] | 21.7% |
| CCOC1(C)Nc2ccccc2CN1C(=O)c1cc(NC(=O)c2cc(F)c(F)cc2Cl)[nH]n1 (stereo not drawn) [Example 6-47] | 41.1% |
| Nc1cc(F)c(F)cc1C(=O)Nc1cc(C(=O)NCc2cccnc2)n[nH]1 [Example 7-11] | 47.3% |
| CS(=O)(=O)Nc1cc(F)c(F)cc1C(=O)Nc1cc(C(=O)NCc2cccnc2)n[nH]1 [Example 7-12] | 8% |
| CC(=O)Nc1cc(F)c(F)cc1C(=O)Nc1cc(C(=O)NCc2cccnc2)n[nH]1 [Example 7-13] | 1.9% |
| O=C(NCc1cccnc1)c1cc(NC(=O)c2sc(Cl)c(Cl)c2Cl)[nH]n1 [Example 7-14] | 4.6% |

Same assay, conditions: figure in brackets (300); read-out: IC50 column: % value printed with (300)

| SMILES | inhibition at 0.3 µM |
| --- | --- |
| O=C(NCc1cccnc1)c1cc(NC(=O)c2cc(F)c(Cl)nc2Cl)[nH]n1 [Example 7-5] | 8.5% |
| O=C(NCc1cccnc1)c1cc(NC(=O)c2sccc2Cl)[nH]n1 [Example 7-7] | 2.9% |
| O=C(Nc1cc(C(=O)NCc2cccnc2)n[nH]1)c1ccccc1 [Example 7-8] | 6.8% |

Same assay, conditions: human liver glycogen phosphorylase; class symbol

| SMILES | IC50 |
| --- | --- |
| CCN(C=Nc1ccccc1CNC(=O)c1cc(NC(=O)c2cc(F)c(F)cc2Cl)[nH]n1)CC [Example 6-27] | < 100 nM |
| CCN(C=Nc1cccc(CNC(=O)c2cc(NC(=O)c3cc(F)c(F)cc3Cl)[nH]n2)c1)CC [Example 6-28] | < 100 nM |
| CCN(C=Nc1ccc(CNC(=O)c2cc(NC(=O)c3cc(F)c(F)cc3Cl)[nH]n2)cc1)CC [Example 6-29] | < 100 nM |
| CC(=N)Nc1ccccc1CNC(=O)c1cc(NC(=O)c2cc(F)c(F)cc2Cl)[nH]n1 [Example 6-30] | < 100 nM |
| CC(=N)Nc1cccc(CNC(=O)c2cc(NC(=O)c3cc(F)c(F)cc3Cl)[nH]n2)c1 [Example 6-31] | < 100 nM |
| CC(=N)Nc1ccc(CNC(=O)c2cc(NC(=O)c3cc(F)c(F)cc3Cl)[nH]n2)cc1 [Example 6-32] | < 100 nM |
| N=C(Nc1cccc(CNC(=O)c2cc(NC(=O)c3cc(F)c(F)cc3Cl)[nH]n2)c1)c1ccccc1F [Example 6-34] | < 100 nM |
| N=C(Nc1ccc(CNC(=O)c2cc(NC(=O)c3cc(F)c(F)cc3Cl)[nH]n2)cc1)c1ccccc1F [Example 6-35] | < 100 nM |
| CN(C)C(=O)Nc1cccc(CNC(=O)c2cc(NC(=O)c3cc(F)c(F)cc3Cl)[nH]n2)c1 [Example 6-36] | < 100 nM |
| CN(C)C(=O)Nc1ccc(CNC(=O)c2cc(NC(=O)c3cc(F)c(F)cc3Cl)[nH]n2)cc1 [Example 6-37] | < 100 nM |
| Cc1ccc(S(=O)(=O)Nc2ccccc2CNC(=O)c2cc(NC(=O)c3cc(F)c(F)cc3Cl)[nH]n2)cc1 [Example 6-38] | < 100 nM |
| Nc1cc(F)c(F)cc1CNC(=O)c1cc(NC(=O)c2cc(F)c(F)cc2Cl)[nH]n1 [Example 6-40] | < 100 nM |
| O=C(Nc1cc(C(=O)N2C=NC3CCCCC3C2)n[nH]1)c1cc(F)c(F)cc1Cl (stereo not drawn) [Example 6-43] | < 100 nM |
| O=C(Nc1cc(C(=O)N2C=Nc3ccccc3C2)n[nH]1)c1cc(F)c(F)cc1Cl [Example 6-44] | < 100 nM |
| O=C(Nc1cc(C(=O)N2C=Nc3cc(F)ccc3C2)n[nH]1)c1cc(F)c(F)cc1Cl [Example 6-45] | < 100 nM |
| O=C(Nc1cc(C(=O)N2C=Nc3ccc(F)cc3C2)n[nH]1)c1cc(F)c(F)cc1Cl [Example 6-46] | < 100 nM |
| N/C(=N\O)c1cc(CNC(=O)c2cc(NC(=O)c3cc(F)c(F)cc3Cl)[nH]n2)ccn1 [Example 6-49] | < 100 nM |
| O=C(NCc1ccnc(-c2noc(=O)[nH]2)c1)c1cc(NC(=O)c2cc(F)c(F)cc2Cl)[nH]n1 [Example 6-50] | < 100 nM |
| Cc1cc(F)c(F)cc1C(=O)Nc1cc(C(=O)N(C)c2ccc(-c3nnn[nH]3)cc2)n[nH]1 [Example 7-2] | < 100 nM |
| O=C(NCc1cccnc1)c1cc(NC(=O)c2ccc(Cl)cc2Cl)[nH]n1 [Example 7-3] | < 100 nM |
| Cc1cc(F)c(F)cc1C(=O)Nc1cc(C(=O)NCc2ccnc(C#N)c2)n[nH]1 [Example 7-15] | < 100 nM |
| Cc1cc(F)c(F)cc1C(=O)Nc1cc(C(=O)NCc2ccnc(-c3nnn[nH]3)c2)n[nH]1 [Example 7-16] | < 100 nM |

Test system: db/db mice
Assay: Measuring blood plasma glucose concentration in db/db mice (hypoglycemic effect)
Assay type: in vivo
Parameters: key: ++: compounds exhibiting statistically significant hypoglycemic effect at a dose of 10 mg/kg or less; +: compounds exhibiting not significant but obvious hypoglycemic effect at a dose of 10 mg/kg
Details: db/db mice fasted 4 h, oral administration, plasma glucose 1 and 3 hours after administration, dose 10 mg/kg or less, Dunnett test vs solvent
Experimental: 2. Exemplary Test (2) Method for Measuring Blood Plasma Glucose Concentration
Using db/db mice representing an obesity type of diabetic model were used to examine the effect of compound (1) of the present invention on glucose concentrations in plasma. Plasma glucose concentrations of the db/db mice (9-18 weeks old) were measured, and the mice were divided into groups each of 5 or 8 mice such that there would be no difference in the average value of plasma glucose concentrations. After fasting for four hours, the example compound or the solvent (0.5% methylcellulose) was administered orally to the db/db mice, and plasma glucose concentrations were measured 1 and 3 hours after administration. The analysis of the hypoglycemic effect of the example compound was performed through a statistical test at every hour between the group receiving the solvent and the groups of example compound (Dunnett test).

| SMILES | vivo (hypoglycemic effect in db/db mice) |
| --- | --- |
| O=C(NCc1cccnc1)c1cc(NC(=O)c2cc(F)c(F)cc2Cl)[nH]n1 [Example 1-1-1, 5-(2-chloro-4,5-difluoro-benzoylamino)-1H-pyrazole-3-carboxylic acid (pyridin-3-ylmethyl)-amide dihydrochloride] | ++ |
| Cc1ncoc1CNC(=O)c1cc(NC(=O)c2cc(F)c(F)cc2Cl)[nH]n1 [Example 1-2, 5-(2-chloro-4,5-difluoro-benzoylamino)-1H-pyrazole-3-carboxylic acid (4-methyl-oxazol-5-ylmethyl)-amide] | ++ |
| Cc1ccnc(C)c1CNC(=O)c1cc(NC(=O)c2cc(F)c(F)cc2Cl)[nH]n1 [Example 1-3-1, 5-(2-chloro-4,5-difluoro-benzoylamino)-1H-pyrazole-3-carboxylic acid (2,4-dimethyl-pyridin-3-ylmethyl)-amide dihydrochloride] | ++ |
| COc1cccc(OC)c1CNC(=O)c1cc(NC(=O)c2cc(F)c(F)cc2Cl)[nH]n1 [Example 1-15] | + |
| CN(C)c1ccc(CNC(=O)c2cc(NC(=O)c3cc(F)c(F)cc3Cl)[nH]n2)cc1.Cl [Example 3-29] | + |
| CN(C(=O)c1cc(NC(=O)c2cc(F)c(F)cc2Cl)[nH]n1)c1ccc(C(=O)[O-])cc1.[Na+] [Example 4-2-1, 4-{[5-(2-chloro-4,5-difluoro-benzoylamino)-1H-pyrazole-3-carbonyl]-methyl-amino}-benzoic acid sodium salt] | ++ |
| Cc1noc(C)c1CNC(=O)c1cc(NC(=O)c2cc(F)c(F)cc2Cl)[nH]n1.Cl [Example 5-8] | + |
| Cc1nn(C)c(C)c1CNC(=O)c1cc(NC(=O)c2cc(F)c(F)cc2Cl)[nH]n1 [Example 5-9] | + |
| CS(=O)(=O)O.Cc1noc(C)c1CNC(=O)c1cc(NC(=O)c2cc(F)c(F)cc2Cl)[nH]n1 [Example 5-10] | + |
| COc1cncc(OC)c1CNC(=O)c1cc(NC(=O)c2cc(F)c(F)cc2Cl)[nH]n1 [Example 5-17] | + |
| Cl.O=C(NCc1ccc(-c2csnn2)cc1)c1cc(NC(=O)c2cc(F)c(F)cc2Cl)[nH]n1 [Example 5-31] | + |
| O=C(NCc1cnccn1)c1cc(NC(=O)c2cc(F)c(F)cc2Cl)[nH]n1 [Example 5-42] | + |
| O=C(NCc1ccc(N2CCSCC2)nc1)c1cc(NC(=O)c2cc(F)c(F)cc2Cl)[nH]n1 [Example 5-43] | + |
| O=C(NCc1ccc(N2CCS(=O)(=O)CC2)nc1)c1cc(NC(=O)c2cc(F)c(F)cc2Cl)[nH]n1 [Example 5-44] | + |

Same assay, conditions: db/db mice fasted 4 h, oral administration, plasma glucose 1 and 3 hours after administration, dose 10 mg/kg or less, Dunnett test vs solvent; 10 mg/kg

| SMILES | vivo (hypoglycemic effect in db/db mice) |
| --- | --- |
| COc1ccc(CNC(=O)c2cc(NC(=O)c3cc(F)c(F)cc3Cl)[nH]n2)cn1 [Example 1-12] | ++ |
